Assay results taken from patent publication US20260083851A1 (AVILAR THERAPEUTICS, INC., priority 2022, published 2026).
Like-named read-outs stand apart in the source and are kept apart here.

Key:
[1] = target: T1, ASGP receptor (biotinylated ASGPR) (Homo sapiens, UniProt P07306); assay type: binding; conditions: SPR; Table 2; read-out: ASGPR SPR Binding KD
T1 construct: biotin (biotinylated)
T1 sequence (P07306 1-291): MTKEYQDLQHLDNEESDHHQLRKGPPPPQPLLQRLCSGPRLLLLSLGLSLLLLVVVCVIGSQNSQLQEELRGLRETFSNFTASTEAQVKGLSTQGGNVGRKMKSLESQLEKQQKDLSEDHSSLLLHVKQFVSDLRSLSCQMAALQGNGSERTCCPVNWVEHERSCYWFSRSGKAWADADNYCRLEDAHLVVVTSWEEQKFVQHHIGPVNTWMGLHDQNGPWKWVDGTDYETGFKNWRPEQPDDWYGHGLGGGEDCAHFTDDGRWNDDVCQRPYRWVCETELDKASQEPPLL

TNF = TNF (Homo sapiens, UniProt P01375); experiment: TNF FP Assay; assay type: binding; conditions: TNF 20 nM, 25° C., 2 hours
Protocol: TNF (20 nM) and test compound in 47 mM HEPES pH 6.5, 47 mM NaCl, 0.9 mM EDTA, 0.007% Triton X-100 were incubated at 25° C. for 2 hours. Fluorescence data was read with an Envision and plotted versus Compound concentration and fit to a single-site binding model.

IgG = IgG SPR binding
[2] = target: T2, ASGPR receptor on HepG2 cells (ternary complex with AF488-labeled antibody) (Homo sapiens, UniProt P07306); experiment: Ternary complex formation assay (flow cytometry, cell-associated AF488 fluorescence); assay type: cell-based; conditions: 100 nM AF488-labeled antibody, 1 hour at 4° C.
T2 construct: host or cells: HepG2
T2 sequence (P07306 1-291): T1 sequence (P07306 1-291)
T2 sequence (P07307 1-311 partner): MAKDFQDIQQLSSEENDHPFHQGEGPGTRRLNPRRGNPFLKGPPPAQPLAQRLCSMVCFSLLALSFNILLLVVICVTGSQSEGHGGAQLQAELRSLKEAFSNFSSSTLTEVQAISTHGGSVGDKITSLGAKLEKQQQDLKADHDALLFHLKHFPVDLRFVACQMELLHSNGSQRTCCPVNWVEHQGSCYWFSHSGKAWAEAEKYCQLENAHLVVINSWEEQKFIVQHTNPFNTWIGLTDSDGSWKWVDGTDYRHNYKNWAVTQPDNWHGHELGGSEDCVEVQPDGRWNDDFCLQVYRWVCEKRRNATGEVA

HepG2 cells = experiment: Cellular uptake assay (high-content imaging); assay type: cell-based, human; conditions: 100 nM AF488-labeled antibody, 6 hours at 37° C.
Source text: The cellular uptake assay is designed to measure compound-mediated cellular uptake of fluorescently labeled antibody following ternary complex formation with the ASGPR receptor and endocytosis of the entire complex into cells. The optimal concentration of compound will result in the maximum number of cells with intracellular antibody and is represented as the peak ratio of antibody-positive cells over the total number of cells. As with the ternary complex formation assay, too much or too little compound will result in suboptimal complex formation and fewer cells will have measurable intracellular fluorescence.
Human IgG (Sigma-Aldrich, 14506) was covalently labeled with Alexa Fluor 488 using the Alexa Fluor™ 488 Protein Labeling Kit (Thermo Fisher, A10235) following the manufacturer's instructions. HepG2 cells were plated in DMEM supplemented with 10% FBS at 5,000 cells per well in a 96-well microtiter plate and incubated for approximately 18 hours at 37° C./5% CO2. For studies using human IgG, 100 nM AF488-labeled human IgG antibodies and serial dilutions of IgG-based degrader (0.1% DMSO final concentration) were added to the cells and the mixture was incubated at 37° C. for 6 hours. For studies using DNP, 100 nM AF488-labeled DNP antibodies and serial dilutions of DNP-based degrader (0.1% DMSO final concentration) were added to the cells and the mixture was incubated at 37° C. for 6 hours. HepG2 cells were fixed in 100% methanol at −20° C. for 20 min, washed 3× with PBS, then stained with DAPI (Thermo, Cat #H3570). HepG2 cells were imaged for DAPI and Alexa Fluor 488 using the Operetta CLS, high-content analysis system (PerkinElmer). Data is presented as the ratio of the number of cells positive for hIgG or DNP (AF-488 fluorescence) over the total cell number (measured by DAPI).

ASGPR = target: T3, ASGPR (Homo sapiens, UniProt P07306); experiment: ASGPR SPR binding
T3 construct: biotin (biotinylated)
T3 sequence (P07306 1-291): T1 sequence (P07306 1-291)

TNF, sequence (P01375 77-233 limits assumed): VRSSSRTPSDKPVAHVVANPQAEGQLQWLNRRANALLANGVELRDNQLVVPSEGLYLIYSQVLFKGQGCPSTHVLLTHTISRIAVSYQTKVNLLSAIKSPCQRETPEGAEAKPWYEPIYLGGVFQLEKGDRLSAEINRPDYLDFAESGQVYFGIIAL

SMILES | Kd [1] [nM] | IC50 (TNF; Table 2) [nM] | further results
CC1(C)C(=O)c2ccc(-c3cnc(N4CCN5C(=O)N(CCCNC(=O)COc6cccc(CC(=O)NC[C@H]7OC[C@H](Nc8cncc(C(F)(F)F)n8)[C@@H](O)[C@H]7O)c6)C[C@@H]5C4)nc3)nc2N1Cc1cccnc1C#N [compound 16] | < 100 | > 1000 | 
CC1(C)C(=O)c2ccc(-c3cnc(N4CCN5C(=O)N(CCCNC(=O)c6ccc(C(=O)NC[C@H]7OC[C@H](Nc8cncc(C(F)(F)F)n8)[C@@H](O)[C@H]7O)cc6)C[C@@H]5C4)nc3)nc2N1Cc1cccnc1C#N [compound 13] | < 100 | > 1000 | 
CC1(C)C(=O)c2ccc(-c3cnc(N4CCN5C(=O)N(CCOCCNC(=O)c6ccc(C(=O)NC[C@H]7OC[C@H](Nc8cncc(C(F)(F)F)n8)[C@@H](O)[C@H]7O)cc6)C[C@@H]5C4)nc3)nc2N1Cc1cccnc1C#N [compound 18] |  | > 1000 | 
O=C(COc1ccc(CN2CCN(C[C@H]3OC[C@H](Nc4cncc(C(F)(F)F)n4)[C@@H](O)[C@H]3O)CC2)cc1)N1CCN(Cc2ccc(-c3c[nH]c4ccncc34)c(OCCc3ccc(-c4cccc5ccncc45)cc3)c2)CC1 [compound 4] | < 100 |  | IC50 (TNF; Table 2, numeric bound): > 112 nM
CC1(C)C(=O)c2ccc(-c3cnc(N4CCN5C(=O)N(CCCNC(=O)[C@H]6CC[C@H](C(=O)NC[C@H]7OC[C@H](Nc8cncc(C(F)(F)F)n8)[C@@H](O)[C@H]7O)CC6)C[C@@H]5C4)nc3)nc2N1Cc1cccnc1C#N [compound 15] | < 100 | > 1000 | 
CC(C)C[C@@H]1NC(=O)[C@H](Cc2cnc[nH]2)NC(=O)[C@H](Cc2c[nH]c3ccccc23)NC(=O)[C@H](C)NC(=O)[C@@H]2CSSC[C@H](NC(=O)[C@H](Cc3c[nH]c4ccccc34)NC(=O)[C@H](C(C)C)NC(=O)[C@H](CC(C)C)NC(=O)[C@H](CCC(=O)O)NC(=O)CNC1=O)C(=O)N[C@@H]([C@@H](C)O)C(=O)N1CCC[C@@H]1C(=O)N1C[C@H](NC(=O)COCCOCC(=O)NC[C@H]3OC[C@H](Nc4nccc(C(F)(F)F)n4)[C@@H](O)[C@H]3O)C[C@H]1C(=O)N[C@@H](CC(=O)O)C(=O)N2 [compound 35] |  |  | Kd (IgG; Table 3, read-out: IgG SPR Binding KD): < 100 nM; EC50 ([2]; Table 3, numeric bounds, read-out: Ternary Complex EC50): > 10000 nM; EC50 (HepG2 cells; Homo sapiens, Table 3, numeric bounds, read-out: Uptake Assay (EC50)): > 10000 nM; Kd (ASGPR; Table 3, read-out: ASGPR SPR Binding KD): > 1000 nM
O=C(CCOCC(COCCC(=O)NCCOCCOCCOCCOC[C@H]1OC[C@H](Nc2cncc(C(F)(F)F)n2)[C@@H](O)[C@H]1O)NCC(=O)N1CCN(Cc2ccc(-c3c[nH]c4ccncc34)c(OCCc3ccc(-c4cccc5ccncc45)cc3)c2)CC1)NCCOCCOCCOCCOC[C@H]1OC[C@H](Nc2cncc(C(F)(F)F)n2)[C@@H](O)[C@H]1O [compound 2] | < 100 | > 1000 | 
O=C(CCOCC(COCCC(=O)NCCOCCOCCOCCOC[C@H]1OC[C@H](Nc2cncc(C(F)(F)F)n2)[C@@H](O)[C@H]1O)NC(=O)COCCOCCOCC(=O)N1CCN(Cc2ccc(-c3c[nH]c4ccncc34)c(OCCc3ccc(-c4cccc5ccncc45)cc3)c2)CC1)NCCOCCOCCOCCOC[C@H]1OC[C@H](Nc2cncc(C(F)(F)F)n2)[C@@H](O)[C@H]1O [compound 9] | < 100 | > 1000 | 
CC(C)C[C@@H]1NC(=O)[C@H](Cc2cnc[nH]2)NC(=O)[C@H](Cc2c[nH]c3ccccc23)NC(=O)[C@H](C)NC(=O)[C@@H](NC(=O)[C@H](CC(=O)O)NC(=O)CCOCCOCCOCCOCCNC(=O)CCCc2cn(CCCCCC(=O)NC(COCCC(=O)NCCOCCOCCOCCO[C@@H]3O[C@H](CO)[C@H](O)[C@H](O)[C@H]3Nc3cncc(C(F)(F)F)n3)COCCC(=O)NCCOCCOCCOCCO[C@@H]3O[C@H](CO)[C@H](O)[C@H](O)[C@H]3Nc3cncc(C(F)(F)F)n3)nn2)CSSC[C@@H](C(=O)N[C@H](C(N)=O)[C@@H](C)O)NC(=O)[C@H](Cc2c[nH]c3ccccc23)NC(=O)[C@H](C(C)C)NC(=O)[C@H](CC(C)C)NC(=O)[C@H](CCC(=O)O)NC(=O)CNC1=O [compound 93] |  |  | Kd (IgG; second table, read-out: IgG KD): < 100 nM; EC50 ([2]; the 25th table, class symbols, read-out: TCF EC50): < 100 nM; EC50 (HepG2 cells; the 25th table, class symbols, read-out: Uptake EC50): < 100 nM; Kd (ASGPR; second table, read-out: ASGPR KD): < 100 nM
CC1(C)C(=O)c2ccc(-c3cnc(N4CCN5C(=O)N(CCOCCNC(=O)CNC[C@H]6OC[C@H](Nc7cncc(C(F)(F)F)n7)[C@@H](O)[C@H]6O)C[C@@H]5C4)nc3)nc2N1Cc1cccnc1C#N [compound 10] | < 100 | > 1000 | 
O=C(NC[C@H]1OC[C@H](Nc2cncc(C(F)(F)F)n2)[C@@H](O)[C@H]1O)N1CCN(Cc2ccc(-c3c[nH]c4ccncc34)c(OCCc3ccc(-c4cccc5ccncc45)cc3)c2)CC1 [compound 8] | < 100 | > 1000 | 
O=C(CCOCC(COCCC(=O)NCCOCCOCCOCCOC[C@H]1OC[C@H](Nc2cncc(C(F)(F)F)n2)[C@@H](O)[C@H]1O)NC(=O)COCCOCCOCCOCCOCC(=O)N1CCN(Cc2ccc(-c3c[nH]c4ccncc34)c(OCCc3ccc(-c4cccc5ccncc45)cc3)c2)CC1)NCCOCCOCCOCCOC[C@H]1OC[C@H](Nc2cncc(C(F)(F)F)n2)[C@@H](O)[C@H]1O [compound 5] |  |  | IC50 (TNF; Table 2, numeric bound): > 136 nM

More lines, main results first:

Kd [1] [nM] | IC50 (TNF; Table 2) [nM] | SMILES | further results
< 100 | 500 to 1000 | CC1(C)C(=O)c2ccc(-c3cnc(N4CCN5C(=O)N(CCOCCNC(=O)[C@H]6CC[C@H](C(=O)NC[C@H]7OC[C@H](Nc8cncc(C(F)(F)F)n8)[C@@H](O)[C@H]7O)CC6)C[C@@H]5C4)nc3)nc2N1Cc1cccnc1C#N [compound 17] | 
< 100 | 100 to 500 | O=C(CC(=O)NC[C@H]1OC[C@H](Nc2cncc(C(F)(F)F)n2)[C@@H](O)[C@H]1O)NCCOCCOCCOCc1ccc(-c2cccc3ccncc23)c(OCCc2ccc(-c3cccc4ccncc34)cc2)c1 [compound 1] | 
< 100 | 100 to 500 | CC1(C)C(=O)c2ccc(-c3cnc(N4CCN5C(=O)N(CCCNC(=O)CCN6CCN(CC(=O)NC[C@H]7OC[C@H](Nc8cncc(C(F)(F)F)n8)[C@@H](O)[C@H]7O)CC6)C[C@@H]5C4)nc3)nc2N1Cc1cccnc1C#N [compound 11] | 
< 100 | 100 to 500 | CC1(C)C(=O)c2ccc(-c3cnc(N4CCN5C(=O)N(CCCNC(=O)COc6ccc(CN7CCN(C[C@H]8OC[C@H](Nc9cncc(C(F)(F)F)n9)[C@@H](O)[C@H]8O)CC7)cc6)C[C@@H]5C4)nc3)nc2N1Cc1cccnc1C#N [compound 12] | 
< 100 | < 100 | O=C(COCCOCC(=O)N1CCN(Cc2ccc(-c3c[nH]c4ccncc34)c(OCCc3ccc(-c4cccc5ccncc45)cc3)c2)CC1)NC[C@H]1OC[C@H](Nc2cncc(C(F)(F)F)n2)[C@@H](O)[C@H]1O [compound 3] | 
< 100 | < 100 | O=C(COCCOCCOCCOCCOCC(=O)N1CCN(Cc2ccc(-c3c[nH]c4ccncc34)c(OCCc3ccc(-c4cccc5ccncc45)cc3)c2)CC1)NC[C@H]1OC[C@H](Nc2cncc(C(F)(F)F)n2)[C@@H](O)[C@H]1O [compound 7] | 
< 100 | 100 to 500 | CC1(C)C(=O)c2ccc(-c3cnc(N4CCN5C(=O)N(CCCNC(=O)CNC[C@H]6OC[C@H](Nc7cncc(C(F)(F)F)n7)[C@@H](O)[C@H]6O)C[C@@H]5C4)nc3)nc2N1Cc1cccnc1C#N [compound 14] | 
 | 100 to 500 | O=C(CNC[C@H]1OC[C@H](Nc2cncc(C(F)(F)F)n2)[C@@H](O)[C@H]1O)NCCOCCOCCOCc1ccc(-c2cccc3ccncc23)c(OCCc2ccc(-c3cccc4ccncc34)cc2)c1 [compound 6] | 
